The values below come from patent US6803224B2, “Regulated expression of cloned genes using a cascade genetic circuit” (priority 2000, dated 2004).

Like-named read-outs stand apart in the source and are kept apart here.

In one experiment the test system is nahR/Psal. Type of experiment: cell-based, E. coli. The following applies: for Induction ratio of β-galactosidase activity: nahR/Psal, E. coli CC118RSL9, 5 hours at 30° C. An excerpt: (§1) This example illustrates how the effector molecules NahR and XylS2 can synergistically amplify gene expression when integrated properly into a cascade genetic circuit.
A further experiment relates to xylS2/Pm. The experiment can be described thus: β-galactosidase induction, simple circuit xylS2/Pm::lacZ in chromosome (E. coli CC118FH26). The experiment is classed as cell-based. The following applies: E. coli CC118FH26, 5 hours at 30° C.
Source text: as §1

For experiment [1], the system named is nahR4/Psal::xylS/Pm::trp'::'lacZ.
For experiment [2], the system named is nahR/Psal::xylS2/Pm::trp'::'lacZ. Conditions: Salicylate 2 mM, 30° C., 5 hours, depending on the transconjugant.
Another experiment deals with Pm::lacZ (pTSPm-lacZ). Conditions: CC118λpir pTSPm-lacZ, salicylate 2 mM, 30° C., 5 hours.
In experiment [3] the test system is nahR/Psal::lacZ (pCNB4-lacZ). Conditions: CC118λpir pCNB4-lacZ, salicylate 2 mM, 5 hours.
Experiment [4] concerns xylS2/Pm::lacZ (pCNB2-lacZ). Conditions: CC118λpir pCNB2-lacZ, salicylate 2 mM, 5 hours.
For experiment [5], the system named is xylS2/Pm::nahR and Psal::trp'::'lacZ. The following applies: E. coli 2NRSL7, salicylate 2 mM.
Experiment [6] concerns nahR/Psal::xylS2/Pm. Type of experiment: cell-based, E. coli.
Source text: as §1

Experiment [7] has as its system nahR/Psal::xylS2/Pm. The following applies: CC4S2PMT97, salicylate 2 mM, 30° C., 5 hours.
Description: The pool of bacteria growing on streptomycin 25 mg/l and rifampicin 50 mg/l was used as recipient in a mating with donor strain E. coli S17-1(λpir) (pCNB4-S2). To select transconjugants, the mating product was plated onto LB plates with rifampicin, streptomycin and kanamycin (25 mg/l). […] Cultures from colonies of the transconjugant were grown overnight in LB medium (yeast extract 5 g/l, tryptone 10 g/l, 5 g/l NaCl) at 37° C. by shaking. Cultures were diluted 1:100 in fresh media without antibiotic selection and incubated for 2 hours at 37° C.

As for `Cc1cccc(C(=O)O)c1O` [3-Methyl-salicylate], the figures for the “Induction ratio of β-galactosidase activity” value in the experiment with nahR/Psal and with xylS2/Pm were 17 and 46, respectively.
As to `O=C(O)c1cc(Cl)ccc1O` [5-Chloro-salicylate], the entries for the “Induction ratio of β-galactosidase activity” value in the experiment with nahR/Psal and with xylS2/Pm were 32 and 3, respectively.
On to `Cc1cccc(C(=O)O)c1` [3-Methyl-benzoate], for which the figures for the “Induction ratio of β-galactosidase activity” value in the experiment on nahR/Psal and in the experiment on xylS2/Pm were 11 and 63, respectively.
With `Nc1ccccc1C(=O)O` [Antranilate], the results for the “Induction ratio of β-galactosidase activity” value with nahR/Psal and with xylS2/Pm were 22 and 11, respectively.
For the compound `Cc1ccc(O)c(C(=O)O)c1` [5-Methyl-salicylate], the “Induction ratio of β-galactosidase activity” value in the experiment on nahR/Psal is 30; with xylS2/Pm, 19.
On to `O=C(O)c1ccc(Cl)cc1O` [4-Chloro-salicylate], for which the results for the “Induction ratio of β-galactosidase activity” value in the experiment on nahR/Psal and in the experiment on xylS2/Pm were 33 and 1, respectively.
For `CC(=O)Oc1ccccc1C(=O)O` [2-Acetyl salicylate], the “Induction ratio of β-galactosidase activity” value with nahR/Psal is 40; with xylS2/Pm, 10.
The corresponding values for `COc1ccccc1C(=O)O` [2-Metoxi-benzoate] are 33 and 10.
Regarding `O=C(O)c1ccccc1O` [Salicylate], in experiment [1] (P. putida cascade cultures induced with salicylate), the “XylS accumulation (western blot)” value was “Increased accumulation of XylS”. Further, in [1] (P. putida cascade transconjugants, 2 mM), the “β-galactosidase produced in the presence of salicylate relative to benzoate” value is recorded as “about 4 fold”. The gene expression capacity in experiment [2] was 150 to 400 times. The “β-galactosidase production when induced” value in experiment [2] was 25,000-50,000 MU. The β-gal activity in the experiment on Pm::lacZ (pTSPm-lacZ) is listed as 1358 Miller Units; in [3] (30° C.), 17952 Miller Units; in experiment [4] (30° C.) it was 67002 Miller Units; in the experiment on nahR/Psal::xylS2/Pm [6] (CC4S2PMT32, salicylate 2 mM, 30° C., 5 hours) it was 30383 Miller Units; in the experiment with nahR/Psal::xylS2/Pm [7], 39143 Miller Units. Further, the “% β-gal/total proteins” value in experiment [3] (SDS-PAGE densitometry) was 3.9%; in [4] (SDS-PAGE densitometry) it was 13%. Further, in [5], the “capacity of the reverse-coupled system (induction)” value came out at 24 fold. Further, in the experiment on nahR/Psal::xylS2/Pm [6] (0.5 mM of salicylate), the “induction ratio as part of maximal activity” value was found to be 90%. The “time at which accumulation of β-galactosidase reached maximum value” in the experiment with nahR/Psal::xylS2/Pm [6] (Salicylate 2 mM added at OD600=0.2) was 5 h. The “Induction ratio of β-galactosidase activity” value in the experiment on nahR/Psal worked out at 24; in the experiment on xylS2/Pm, 13. For the same compound, the “β-galactosidase production, share of total protein” value in the experiment with nahR/Psal (the simple system, SDS-PAGE and densitometry) is on record as “less than 0.6%”.
As for `O=C(O)c1cc(Cl)cc(Cl)c1O` [3,5-Dichloro-salicylate], the “Induction ratio of β-galactosidase activity” value is listed as 18 in the experiment on nahR/Psal and 1 with xylS2/Pm.
The like results for `Cc1ccc(C(=O)O)c(O)c1` [4-Methyl-salicylate] were, in that order, 21 and 7.
Consider `COc1ccc(O)c(C(=O)O)c1` [5-Metoxi-salicylate], for which the “Induction ratio of β-galactosidase activity” value with nahR/Psal worked out at 3; in the experiment on xylS2/Pm, 46.
